Laboratory results from patent US4628064A, “Epinine and the therapeutic use thereof” (SIMES, Societa Italiana Medicinali e Sintetici S.p.A., priority 1983, dated 1986).

Experiments:
[1] = system: electrically stimulated median arteria of rabbit ear; experiment: Inhibition of contraction induced by electrical stimulation, median arteria of rabbit ear; settings: for IC50: Oryctolagus cuniculus, concentrations between 0.01 and 10 μM, read-out: ED50 in inhibiting the contraction induced by electrical stimulation
[2] = system: anesthetized dog; experiment: Hemodynamic parameters in the anesthetized dog after intravenous infusion; format: in vivo; settings: for effect on the heart rate: doses of 1, 2.5 and 5 μg/kg/min, in words; for Average arterial pressure / Heart rate / Renal art. flow / Renal resistances: measured 5 minutes after infusion, average ± SE
From the text: Dopamine and epinine have been compared after intravenous infusion at different doses in the anesthetized dog.

[3] = less potent than adrenaline; cited from earlier work

Row | Compound | IC50 [1] | effect on the heart rate [2] | Average arterial pressure ([2]; infusion 1.00 μg/kg/min) | Heart rate ([2]; infusion 1.00 μg/kg/min) | Renal art. flow ([2]; infusion 1.00 μg/kg/min) | Renal resistances ([2]; infusion 1.00 μg/kg/min) | Average arterial pressure ([2]; infusion 2.50 μg/kg/min) | Heart rate ([2]; infusion 2.50 μg/kg/min) | Renal art. flow ([2]; infusion 2.50 μg/kg/min) | Renal resistances ([2]; infusion 2.50 μg/kg/min) | Average arterial pressure ([2]; infusion 5.00 μg/kg/min) | Heart rate ([2]; infusion 5.00 μg/kg/min) | Renal art. flow ([2]; infusion 5.00 μg/kg/min) | Renal resistances ([2]; infusion 5.00 μg/kg/min) | activity relative to dopamine (presynaptic DA2 receptors) ([1]; higher than that of dopamine) | pressor potency relative to adrenaline [3] | Average arterial pressure ([2]; infusion 0.50 μg/kg/min) | Heart rate ([2]; infusion 0.50 μg/kg/min) | Renal art. flow ([2]; infusion 0.50 μg/kg/min) | Renal resistances ([2]; infusion 0.50 μg/kg/min)
1 | NCCc1ccc(O)c(O)c1 [dopamine, reference compound] | 2390 nM | slightly increased | 106 ± 7 mmHg | 144 ± 10 | 127 ± 20.8 mL/min | 1.120 ± 0.149 mmHg/ml/min | 105 ± 6 mmHg | 146 ± 8 | 132 ± 21.0 mL/min | 1.053 ± 0.146 mmHg/ml/min | 109 ± 6 mmHg | 151 ± 8 | 122.9 ± 19.8 mL/min | 1.136 ± 0.261 mmHg/ml/min | – | – | – | – | – | –
2 | CNCCc1ccc(O)c(O)c1 [epinine, N-methyl-3,4-dihydroxyphenethylamine] | 77 nM | moderate but significant reduction | 136 ± 8 mmHg | 161 ± 11 | 157.5 ± 28.1 mL/min | 0.971 ± 0.185 mmHg/ml/min | 135 ± 7 mmHg | 156 ± 12 | 159.8 ± 29.3 mL/min | 0.954 ± 0.183 mmHg/ml/min | 139 ± 6 mmHg | 149 ± 11 | 164.3 ± 29.7 mL/min | 0.965 ± 0.181 mmHg/ml/min | 30 times | about ten | 136 ± 9 mmHg | 164 ± 10 | 153.5 ± 18.5 mL/min | 0.990 ± 0.145 mmHg/ml/min
